Experimental data: PMC9607427, “Novel 7-Chloro-(4-thioalkylquinoline) Derivatives: Synthesis and Antiproliferative Activity through Inducing Apoptosis and DNA/RNA Damage” (Pharmaceuticals, 2022)

SMILES | melting point [°C]
COc1ccc(C(=O)OCCSc2ccnc3cc(Cl)ccc23)c(OC)c1OC [Compound 12, 2-[(7-Chloroquinolin-4-yl)sulfanyl]ethyl 2,3,4-trimethoxybenzoate] | 94 to 96
COc1cccc(C(=O)OCCCSc2ccnc3cc(Cl)ccc23)c1OC [Compound 24, 3-[(7-Chloroquinolin-4-yl)sulfanyl]propyl-2,3-dimethoxybenzoate] | 78 to 80
COc1ccccc1C(=O)OCCSc1ccnc2cc(Cl)ccc12 [Compound 22, 2-[(7-Chloroquinolin-4-yl)sulfanyl]ethyl-2-methoxybenzoate] | 98 to 99
COc1cccc(C(=O)OCCSc2ccnc3cc(Cl)ccc23)c1OC [Compound 6, 2-[(7-Chloroquinolin-4-yl)sulfanyl]ethyl 2,3-dimethoxybenzoate] | 108 to 109
COc1ccc(C(=O)OCCCSc2ccnc3cc(Cl)ccc23)cc1 [Compound 23, 3-[(7-Chloroquinolin-4-yl)sulfanyl]propyl-4-methoxybenzoate] | 106 to 108
COc1ccc(C(=O)OCCSc2ccnc3cc(Cl)ccc23)cc1[N+](=O)[O-] [Compound 17, 2-[(7-Chloroquinolin-4-yl)sulfanyl]ethyl 4-methoxy-3-nitrobenzoate] | 171 to 173
CC(C)(C)c1ccc(C(=O)OCCSc2ccnc3cc(Cl)ccc23)cc1 [Compound 21, 2-[(7-Chloroquinolin-4-yl)sulfanyl]ethyl-4-tert-butylbenzoate] | 120 to 122
Cc1cc(C)cc(C(=O)OCCSc2ccnc3cc(Cl)ccc23)c1 [Compound 19, 2-[(7-Chloroquinolin-4-yl)sulfanyl]ethyl 3,5-dimethylbenzoate] | 102 to 104
COc1cccc(OC)c1C(=O)OCCSc1ccnc2cc(Cl)ccc12 [Compound 9, 2-[(7-Chloroquinolin-4-yl)sulfanyl]ethyl 2,6-dimethoxybenzoate] | 116 to 118
O=C(OCCSc1ccnc2cc(Cl)ccc12)c1ccc(C(F)(F)F)cc1 [Compound 20, 2-[(7-Chloroquinolin-4-yl)sulfanyl]ethyl 4-(trifluoromethyl)benzoate] | 134 to 136
COc1ccc(C(=O)OCCSc2ccnc3cc(Cl)ccc23)cc1OC [Compound 10, 2-[(7-Chloroquinolin-4-yl)sulfanyl]ethyl 3,4-dimethoxybenzoate] | 109 to 110

Further lines, results first:

melting point [°C] | SMILES
151 to 153 | COc1cc(OC)c(C(=O)OCC[S+]([O-])c2ccnc3cc(Cl)ccc23)cc1OC (stereo not drawn) [Compound 45, 2-[(7-Chloroquinolin-4-yl)sulfinyl]ethyl-2,4,5-trimethoxybenzoate]
138 to 140 | COc1ccc(C(=O)OCCCSc2ccnc3cc(Cl)ccc23)cc1[N+](=O)[O-] [Compound 35, 3-[(7-Chloroquinolin-4-yl)sulfanyl]propyl-4-methoxy-3-nitrobenzoate]
97 to 98 | COc1ccc(OC)c(C(=O)OCCCSc2ccnc3cc(Cl)ccc23)c1 [Compound 26, 3-[(7-Chloroquinolin-4-yl)sulfanyl]propyl-2,5-dimethoxybenzoate]
98 to 100 | COc1cc(C(=O)OCCCSc2ccnc3cc(Cl)ccc23)cc(OC)c1OC [Compound 30, 3-[(7-Chloroquinolin-4-yl)sulfanyl]propyl-3,4,5-trimethoxybenzoate]
112 to 113 | COc1ccc(OC)c(C(=O)OCC[S+]([O-])c2ccnc3cc(Cl)ccc23)c1 (stereo not drawn) [Compound 44, 2-[(7-Chloroquinolin-4-yl)sulfinyl]ethyl-2,5-dimethoxybenzoate]
95 to 97 | COc1ccccc1C(=O)OCCCSc1ccnc2cc(Cl)ccc12 [Compound 31, 3-[(7-Chloroquinolin-4-yl)sulfanyl]propyl-2-methoxybenzoate]
112 to 113 | O=C(OCCCSc1ccnc2cc(Cl)ccc12)c1ccccc1F [Compound 40, 3-[(7-Chloroquinolin-4-yl)sulfanyl]propyl-2-fluorobenzoate]
